Experimental data published in patent US12668599B2, “Heterobifunctional compounds and methods of treating disease” (Halda Therapeutics OpCo, Inc., priority 2023, dated 2026).

Key:
[1] = test system: T-Rex 293 cell line SC3 cells having increased expression of androgen receptor protein due to exposure to doxycycline; assay: Cellular growth inhibition, T-Rex 293 SC3 cells with doxycycline-induced androgen receptor (CellTiter-Glo 2.0, 72 hours); type: cell-based; conditions: for GI50: T-Rex 293 SC3 cells with 10 ng/ml doxycycline (increased androgen receptor expression), 72 hours, CellTiter-Glo 2.0
[2] = test system: T-Rex 293 cell line SC3 cells lacking increased expression of androgen receptor protein; assay: Cellular growth inhibition, T-Rex 293 SC3 cells without doxycycline (CellTiter-Glo 2.0, 72 hours); type: cell-based; conditions: T-Rex 293 SC3 cells not exposed to doxycycline (no increased androgen receptor expression)
[3] = test system: VCaP cells; assay: Cellular growth inhibition assay for VCaP cells (CellTiter-Glo 2.0, 72 hours); type: cell-based, human; conditions: for GI50: CellTiter-Glo 2.0

GI50 ([3]; Homo sapiens, VCaP, 72 h) [nM]	Ratio of GI50's ([3]; GI50 of the top compound in the pair divided by GI50 of the lower compound)	GI50 ([3]; 72 hours) [nM]	SMILES	GI50 [1] [nM]	GI50 ([2]; 72 h) [nM]	Ratio of GI50's ([1]; GI50 of the top compound in the pair divided by GI50 of the lower compound, T-Rex 293 SC3 cells with doxycycline-induced androgen receptor)	GI50 [2] [nM]
< 500	–	–	COc1cc(O[C@H]2CC[C@H](NC(=O)c3ccc(N4CC(F)(F)C5(CCN(c6ccc(C7=N[C@@H](C)c8nnc(C)n8-c8sc(C)c(C)c87)cc6)CC5)C4)nn3)CC2)ccc1C#N [Compound I-107, N-[4-(4-cyano-3-methoxy-phenoxy)cyclohexyl]-6-[4,4-difluoro-8-[4-[(9S)-4,5,9,13-tetramethyl-3-thia-1,8,11,12-tetrazatricyclo[8.3.0.0^2,6]trideca-2 (6),4,7,10,12-pentaen-7-yl]phenyl]-2,8-diazaspiro[4.5]decan-2-yl]pyridazine-3-carboxamide]	< 500	< 500	–	–
< 500	1	–	COc1cc(O[C@H]2CC[C@H](NC(=O)c3ccc(N4CCC5(CC4)CC(Oc4ccc(C6=N[C@@H](Cc7ncco7)c7nnc(C)n7-c7sc(C)c(C)c76)cc4)C5)nn3)CC2)ccc1C#N [Compound I-83, N-[4-(4-cyano-3-methoxy-phenoxy)cyclohexyl]-6-[2-[4-[(9S)-4,5,13-trimethyl-9-(oxazol-2-ylmethyl)-3-thia-1,8,11,12-tetrazatricyclo[8.3.0.0^2,6]trideca-2 (6),4,7,10,12-pentaen-7-yl]phenoxy]-7-azaspiro[3.5]nonan-7-yl]pyridazine-3-carboxamide]	< 500	< 500	1	–
< 500	–	–	COc1cc(O[C@H]2CC[C@H](NC(=O)c3ccc(N4CCC5(CCN(c6ccc(C7=N[C@@H](C)c8nnc(C)n8-c8sc(C)c(C)c87)c(F)c6)C5)C4)nn3)CC2)ccc1C#N (some centres unmarked) [Compound I-92]	< 500	< 500	–	–
< 500	–	–	CC[C@@H]1N=C(c2ccc(C#CC3CC4(C3)CN(c3ccc(C(=O)N[C@H]5CC[C@H](Oc6ccc(C#N)c(OC(F)(F)F)c6)CC5)nn3)C4)cc2)c2c(sc(C)c2C)-n2c(C)nnc21 [Compound I-6, N-[4-[4-cyano-3-(trifluoromethoxy)phenoxy]cyclohexyl]-6-[6-[2-[4-[(9S)-9-ethyl-4,5,13-trimethyl-3-thia-1,8,11,12-tetrazatricyclo[8.3.0.0^2,6]trideca-2 (6),4,7,10,12-pentaen-7-yl]phenyl]ethynyl]-2-azaspiro[3.3]heptan-2-yl]pyridazine-3-carboxamide]	< 500	< 500	–	–
< 500	–	–	COc1cc(O[C@H]2CC[C@H](NC(=O)c3cnc(N4CCC5(CCC(c6ccc(C7=N[C@@H](C)c8nnc(C)n8-c8sc(C)c(C)c87)cc6)CC5)C4)cn3)CC2)ccc1C#N (stereo partly drawn) [Compound I-54, N-[4-(4-cyano-3-methoxy-phenoxy)cyclohexyl]-5-[8-[4-[(9S)-4,5,9,13-tetramethyl-3-thia-1,8,11,12-tetrazatricyclo[8.3.0.0^2,6]trideca-2 (6),4,7,10,12-pentaen-7-yl]phenyl]-2-azaspiro[4.5]decan-2-yl]pyrazine-2-carboxamide]	< 500	< 500	–	–

Continued, molecule first:

SMILES	GI50 ([3]; Homo sapiens, VCaP, 72 h) [nM]	Ratio of GI50's ([3]; GI50 of the top compound in the pair divided by GI50 of the lower compound)	GI50 ([3]; 72 hours) [nM]	GI50 [1] [nM]	GI50 ([2]; 72 h) [nM]	Ratio of GI50's ([1]; GI50 of the top compound in the pair divided by GI50 of the lower compound, T-Rex 293 SC3 cells with doxycycline-induced androgen receptor)	GI50 [2] [nM]
COc1cc(O[C@H]2CC[C@H](NC(=O)c3ccc(N4CCC5(CCC(c6ccc(C7=N[C@@H](C)c8nnc(C)n8-c8sc(C)c(C)c87)c(Cl)c6)CC5)C4)nn3)CC2)ccc1C#N (some centres unmarked) [Compound I-65]	500 to 1500	–	–	< 500	> 3000	–	–
COc1cc(O[C@H]2CC[C@H](NC(=O)c3ccc(N4CCC5(CCN(c6ccc(C7=N[C@@H](C)c8nnc(C)n8-c8sc(C)c(C)c87)cc6)CC5)C4)nc3)CC2)ccc1C#N [Compound I-38]	< 500	–	–	< 500	< 500	–	–
COc1cc(O[C@H]2CC[C@H](NC(=O)c3ccc(N4CCC5(CCC(c6ccc(C7=N[C@@H](C)c8nnc(C)n8-c8sc(C)c(C)c87)cc6Cl)CC5)C4)nn3)CC2)ccc1C#N (some centres unmarked) [Compound I-85]	–	–	< 500	< 500	–	–	> 3000
COc1cc(O[C@H]2CC[C@H](NC(=O)c3ccc(N4CCC5(CCN(c6ccc(C7=N[C@@H](C)c8nnc(C)n8-c8sc(C)c(C)c87)cc6)CC5)C4)nn3)CC2)ccc1C#N [Compound I-71]	–	–	< 500	< 500	–	–	< 500
